Test results as given in patent publication US7410975B2, “Small molecule toll-like receptor (TLR) antagonists” (Coley Pharmaceutical Group, Inc., priority 2003, dated 2008).

Target: T1, human TLR3 (hTLR3) (Homo sapiens, UniProt O15455)
T1 construct: expressed in transfected cells
T1 sequence (O15455 24-904): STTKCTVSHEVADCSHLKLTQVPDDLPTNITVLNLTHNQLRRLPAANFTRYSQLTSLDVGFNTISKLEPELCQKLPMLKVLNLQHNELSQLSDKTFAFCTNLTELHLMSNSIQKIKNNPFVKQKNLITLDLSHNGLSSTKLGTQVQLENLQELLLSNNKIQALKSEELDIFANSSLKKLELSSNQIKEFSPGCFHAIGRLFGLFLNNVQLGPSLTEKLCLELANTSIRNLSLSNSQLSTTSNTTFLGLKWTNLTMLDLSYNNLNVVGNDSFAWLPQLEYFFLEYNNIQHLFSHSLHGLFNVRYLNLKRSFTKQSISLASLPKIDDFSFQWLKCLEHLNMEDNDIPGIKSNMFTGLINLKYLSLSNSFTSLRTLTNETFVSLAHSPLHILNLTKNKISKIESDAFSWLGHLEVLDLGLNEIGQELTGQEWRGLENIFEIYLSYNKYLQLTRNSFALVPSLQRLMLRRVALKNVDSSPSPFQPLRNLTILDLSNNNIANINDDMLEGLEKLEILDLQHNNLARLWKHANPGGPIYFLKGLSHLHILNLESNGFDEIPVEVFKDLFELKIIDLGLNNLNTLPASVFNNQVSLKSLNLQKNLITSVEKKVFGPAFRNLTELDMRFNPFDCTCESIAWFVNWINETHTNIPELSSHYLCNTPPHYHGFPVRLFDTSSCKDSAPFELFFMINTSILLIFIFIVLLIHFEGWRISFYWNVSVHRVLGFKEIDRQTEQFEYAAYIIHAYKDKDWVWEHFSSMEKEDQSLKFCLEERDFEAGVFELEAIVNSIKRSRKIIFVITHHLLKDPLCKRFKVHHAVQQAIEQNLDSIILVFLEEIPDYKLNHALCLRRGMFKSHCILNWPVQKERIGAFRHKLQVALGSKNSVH
Assay: Antagonist screen, hTLR3-NFκB-293 cells, NF-κB-luciferase reporter, with EC50 of poly(I:C)
Format: cell-based
Conditions: compound at 0.5, 5, 50 μg/ml; EC50 concentration of poly(I:C); 16 h; NF-κB-luciferase
Description: The method is described in greater detail as follows. The cells for each individual cell clone (hTLR3-NFκB-293, hTLR7-NFκB-293, hTLR8-NFκB-293 and hTLR9-NFκB-293) were counted and seeded one day before the stimulation at 1.5×10^4 cells per well in 96-well cell culture plates. To become adherent the cells were incubated after seeding overnight at 37° C. in 5% CO2 humidified air.
The screen for each compound was performed at the same time for all of the receptors TLR3, TLR7, TLR8 and TLR9. Up to fifteen test compounds, each assayed in duplicate at each of three different final concentrations (0.5 μg/ml, 5 μg/ml, and 50 μg/ml), were used for 16 h cell stimulation on a single multiwell culture plate. A 4× final concentration master plate was created to prepare the different test compounds before they were added to the cells.
Controls were added as duplicates individually for each cell clone on the cell culture plate. Positive controls were used as follows (final concentrations): 50 μg/ml poly(I:C) for hTLR3-NFκB-293; 8 μM resiquimod (R848) for hTLR7-NFκB-293; 30 μM R848 for hTLR8-NFκB-293; and 2.5 μM CpG-ODN 2006 for hTLR9-NFκB-293. Media alone was used as negative control. After addition of controls and small molecules, the cell clones were additionally stimulated with the EC50 concentration of the appropriate receptor-specific ligand.
The mean value of wells H2 and H5 (each with cells and EC50 concentration of the appropriate receptor-specific ligand) divided by the mean of wells H3 and H6 (each with cells alone) yielded the baseline response (i.e., fold induction of luciferase activity) to EC50 concentration of the appropriate receptor-specific ligand.
After 16 h stimulation the supernatant was removed and the cells treated with lysis buffer and stored at −80° C. before measuring.
For each screen result a graphical documentation was performed.
The baseline result (measured with addition of the EC50 concentration of the receptor-specific ligand) for each cell culture plate was measured as described above. Antagonistic effects were measured by down regulation compared to the baseline. Antagonists were scored as follows: • 13: compounds for which there was clear down regulation at 0.5 μg/ml, 5 μg/ml, and 50 μg/ml; • 12: compounds for which there was clear down regulation at 5 μg/ml and 50 μg/ml; • 11: compounds for which there was clear down regulation only at 50 μg/ml; • —: compounds for which there was no clear down regulation even at 50 μg/ml. Agonists
Results were expressed as fold induction over baseline luciferase activity measured in the absence of poly(I:C). […] Additional screening was performed in like manner using additional small molecules selected from another library or specifically prepared for this purpose. Scoring is reported as above but as applied to TLR3.

SMILES | hTLR3 (inhibitory effect, antagonist score)
CC1NCCc2c1[nH]c1ccccc21.Cl (racemic) [compound 619, Eleagnine hydrochloride (R,S)] | — (compounds for which there was no clear down regulation even at 50 μg/ml)
O=C1c2c(O)cccc2Cc2cccc(O)c21 [compound 43, Anthralin] | — (compounds for which there was no clear down regulation even at 50 μg/ml)
CN(C)CCCN1c2ccccc2Sc2ccc(C(F)(F)F)cc21.Cl [compound 53, Triflupromazinehydrochloride] | 11 (compounds for which there was clear down regulation only at 50 μg/ml)
CN(C)CCCN1c2ccccc2Sc2ccc(Cl)cc21.Cl [compound 64, Chlorpromazinehydrochloride] | 11 (compounds for which there was clear down regulation only at 50 μg/ml)
CN(C)CCC=C1c2ccccc2CCc2ccccc21.Cl [compound 74, Amitryptilinehydrochloride] | — (compounds for which there was no clear down regulation even at 50 μg/ml)
OC(c1ccccc1)(c1ccccc1)C1CCNCC1 [compound 93, Azacyclonol] | — (compounds for which there was no clear down regulation even at 50 μg/ml)
CN1Cc2c(N)cccc2C(c2ccccc2)C1.O=C(O)/C=C\C(=O)O (stereo not drawn) [compound 108, Nomifensine maleate] | — (compounds for which there was no clear down regulation even at 50 μg/ml)
C[C@]12N[C@H](Cc3ccccc31)c1ccccc12.O=C(O)/C=C\C(=O)O [compound 109, Dizocilpine maleate] | — (compounds for which there was no clear down regulation even at 50 μg/ml)
OCCN1CCN(CCCN2c3ccccc3Sc3ccc(Cl)cc32)CC1 [compound 125, Perphenazine] | — (compounds for which there was no clear down regulation even at 50 μg/ml)
CN1CCN(CCCN2c3ccccc3Sc3ccc(S(=O)(=O)N(C)C)cc32)CC1.CS(=O)(=O)O.CS(=O)(=O)O [compound 149, Thioproperasinedimesylate] | — (compounds for which there was no clear down regulation even at 50 μg/ml)
Clc1ccccc1C(c1ccccc1)(c1ccccc1)n1ccnc1 [compound 267, Clotrimazole] | — (compounds for which there was no clear down regulation even at 50 μg/ml)
CC(NCCC(c1ccccc1)c1ccccc1)c1ccccc1.Cl (stereo not drawn) [compound 270, Fendiline hydrochloride] | 11 (compounds for which there was clear down regulation only at 50 μg/ml)
CN1CCC(=C2c3ccccc3Sc3ccccc32)CC1.O=C(O)/C=C\C(=O)O [compound 294, Pimethixene maleate] | 11 (compounds for which there was clear down regulation only at 50 μg/ml)
O=c1[nH]c2ccccc2n1C1CCN(CCCC(c2ccc(F)cc2)c2ccc(F)cc2)CC1 [compound 308, Pimozide] | 12 (compounds for which there was clear down regulation at 5 μg/ml and 50 μg/ml)
Cl.Cl.OCCN1CCN(CC/C=C2/c3ccccc3Sc3ccc(C(F)(F)F)cc32)CC1 [compound 340, Flupentixoldihydrochloride cis-(Z)] | 11 (compounds for which there was clear down regulation only at 50 μg/ml)
CNCCCN1c2ccccc2CCc2ccccc21.Cl [compound 343, Desipraminehydrochloride] | 11 (compounds for which there was clear down regulation only at 50 μg/ml)
CN(C)CC/C=C1/c2ccccc2Sc2ccc(Cl)cc21.Cl [compound 348, Chlorprothixenehydrochloride] | 11 (compounds for which there was clear down regulation only at 50 μg/ml)
Cc1cccc(C)c1NC(=O)CN1CCN(CCCC(c2ccc(F)cc2)c2ccc(F)cc2)CC1 [compound 381, Lidoflazine] | 11 (compounds for which there was clear down regulation only at 50 μg/ml)
Cl.Cl.Fc1ccc(C(OCCN2CCN(CCCc3ccccc3)CC2)c2ccc(F)cc2)cc1 [compound 386, GBR 12909hydrochloride] | 11 (compounds for which there was clear down regulation only at 50 μg/ml)
Nc1cccc2c1C(=O)c1cccc(N)c1C2=O [compound 413, Anthraquinone,1,5-diamino] | 11 (compounds for which there was clear down regulation only at 50 μg/ml)
CN1CCC2C(C1)c1ccccc1N2Cc1ccccc1 (stereo not drawn) [compound 455, Mebhydroline 1,5 naphtalenedisulfonate] | — (compounds for which there was no clear down regulation even at 50 μg/ml)
Cc1cccc(CN2CCN(C(c3ccccc3)c3ccc(Cl)cc3)CC2)c1.Cl.Cl (stereo not drawn) [compound 457, Meclozinedihydrochioride] | — (compounds for which there was no clear down regulation even at 50 μg/ml)
c1ccc2c(c1)[nH]c1cnccc12 [compound 470, norharman] | 11 (compounds for which there was clear down regulation only at 50 μg/ml)
CN(C)CC/C=C1/c2ccccc2CSc2ccccc21.Cl [compound 488, Dosulepin hydrochloride] | 11 (compounds for which there was clear down regulation only at 50 μg/ml)
CN1CCN(C(c2ccccc2)c2ccccc2)CC1.Cl [compound 510, Cyclizine hydrochloride] | — (compounds for which there was no clear down regulation even at 50 μg/ml)
CN1CCCCC1CCN1c2ccccc2Sc2ccc([S+](C)[O-])cc21.O=S(=O)(O)c1ccccc1 (stereo not drawn) [compound 529, Mesoridazine besylate] | — (compounds for which there was no clear down regulation even at 50 μg/ml)
CCOC(=O)Oc1c(OC)cc(C(=O)O[C@@H]2C[C@@H]3CN4CCc5c([nH]c6cc(OC)ccc56)[C@H]4C[C@@H]3[C@H](C(=O)OC)[C@H]2OC)cc1OC [compound 564, Syrosingopine] | 13 (compounds for which there was clear down regulation at 0.5 μg/ml, 5 μg/ml, and 50 μg/ml)
COC(=O)[C@H]1[C@H]2C[C@@H]3c4[nH]c5cc(OC)ccc5c4CCN3C[C@H]2C[C@@H](OC(=O)/C=C/c2cc(OC)c(OC)c(OC)c2)[C@@H]1OC [compound 568, Rescinnamin] | — (compounds for which there was no clear down regulation even at 50 μg/ml)
CC(=O)c1ccc2c(c1)N(CCCN(C)C)c1ccccc1S2.O=C(O)/C=C\C(=O)O [compound 576, Acetopromazinemaleate salt] | 11 (compounds for which there was clear down regulation only at 50 μg/ml)
COC(=O)C1=CO[C@@H](C)[C@@H]2CN3CCc4c([nH]c5ccccc45)[C@@H]3C[C@H]12 [compound 593, Tetrahydroalstonine] | — (compounds for which there was no clear down regulation even at 50 μg/ml)
